# A melting point compilation (Tetko et al.; mined from patent text by program, amines drawn as free bases though some values may be those of a salt)
row,Structure (SMILES),melting point [°C]
1,"CC(=O)OC1(C(C)CN(C)C)CCCCC1c1ccccc1 (single isomer, unassigned; (-))",63 to 66
2,Oc1nc2nc(SCc3ccccc3)nn2c(O)c1-c1c(F)cc(F)cc1F,273
3,O=C(O)c1cn(-c2c[nH]nn2)c2cc(F)c(F)cc2c1=O,215 to 224
4,Cc1nccn1C(=O)NC1CCCCC1,100 to 102
5,CCC(C(=O)c1ccc(Cl)cc1)n1ncn(-c2ccc(N3CCN(c4ccc(OC)cc4)CC3)nc2)c1=O (stereo unspecified),142
6,O=C(Nc1ccc(C(=O)N2Cc3ccc(C(=O)C(Cl)(Cl)Cl)n3Cc3ccccc32)cc1)c1ccccc1C(F)(F)F,219 to 221
7,NS(=O)(=O)c1cccc(-c2cccc(-c3nc(-c4ccc(C(F)(F)F)nc4)cc(C(F)(F)F)n3)c2)c1,211
8,O=C1CCCc2nc3ccccc3c(NCc3cccc(F)c3)c21,156 to 157
9,CCC(C(O)c1ccc(Cl)cc1)n1ncn(-c2ccc(N3CCN(c4ccccn4)CC3)nc2)c1=O (stereo unspecified),171
10,CCOC(=O)Cc1c[nH]c2cc(-c3ccccc3)nn2c1=O,245 to 250
11,COc1ccc(-c2cn[nH]c2N)cc1OC,143 to 146
12,CCOCc1nc2c(N)nc(C)c(C)c2n1CCCNC(C)=O,162
13,CCCC=Cc1c(C(C)C)nc(C(C)C)c(C(=O)OCC)c1-c1ccc(C)cc1,74 to 77
14,COc1ccc2c(C(F)(F)F)c(CC(=O)O)c(=O)oc2c1,198 to 200
15,CCOC(=O)Nc1cc(N2CCN(c3ccc([N+](=O)[O-])cc3)CC2)ccn1,243 to 245
16,O=C(OCc1ccccc1)c1ccc(C#Cc2ccccc2)cc1OCc1ccccc1,98 to 100
17,CC(C)C12OC1C1OC13C1(C)CCC4=C(COC4=O)C1CC1OC13C2O (stereo unspecified),226 to 228
18,NC(=O)c1cc2cc(Cl)ccc2nc1N,250 to 251
19,CCC1(C)C(=O)c2c(cc(O)c(Cl)c2Cl)C1c1ccccc1 (stereo unspecified),248
20,CC(=O)c1ccc2c(c1)OC(C(=O)O)CO2 (stereo unspecified),167 to 168
21,Fc1cccc(CSc2nnc(-c3ccc4occc4c3)o2)c1,112 to 113
22,CCCCc1c(C(=O)OCC)cc(Oc2nnnn2-c2ccccc2)c2c(OC)cccc12,144 to 146
23,CC(C)(C)C1Cc2cc(OCC(=O)O)c(Cl)c(Cl)c2C1=O (stereo unspecified),155 to 175
24,Nc1c(Cl)nc(C2CC2)nc1Cl,54

row,Structure (SMILES),melting point [°C]
1,COc1cccc2oc(C(=O)c3cccc(C(F)(F)F)c3)c(C)c12,91 to 92
2,O=C(O)c1ccccc1Sc1ccccc1[N+](=O)[O-],169 to 171
3,C=CCN(CC=C)CC(=O)N1c2ccccc2N(CCCC)C(=O)c2cnc(-c3ccccc3)nc21,137 to 138
4,COc1ccc(CC#N)c(CCNC(C)=O)c1OC,134 to 136
5,O=C1CCCC2=C1C(c1ccc(F)cc1O)C1=C(CCS1)N2 (stereo unspecified),> 250
6,O=C(NCCO)c1cccc(-c2ccc3c(n2)C(Oc2ccc(Cl)cc2Cl)CC3)c1 (stereo unspecified),181 to 182
7,CC(=O)OC1CSC(Oc2cccc(-c3ccc(C#N)nc3)c2)C(OC(C)=O)C1OC(C)=O (stereo unspecified),130
8,COCOc1cc(OC)cc(C)c1C(=O)O,111 to 112
9,N=c1sc2cc(OC(F)(F)F)ccc2n1CCSCCCC(=O)c1ccccc1,72
10,Cc1ccc(S(=O)(=O)Oc2ccc(S(=O)(=O)c3c(-c4ccccc4)cn4ccccc34)cc2)cc1,168
11,COc1cc(C(=O)c2ccc(CC(=O)O)s2)cc(OC)c1OC,124
12,COc1cc(OC)c(C(=O)O)c(C(F)(F)F)n1,194 to 198
13,CC1=NCN(c2ccc(Br)s2)O1,48 to 49
14,O=C(NCc1ccn(-c2cc3nc(C(=O)O)c(=O)[nH]c3cc2Cl)c1)Nc1cccc2ccccc12,196 to 198
15,CCN(CC)CCNC(=O)c1cc(I)cc2c(Cl)ccnc12,76 to 78
16,O=S1(=O)c2cccc3cccc(c23)N1CCCN1CC=C(c2ccc(Cl)cc2)CC1,111
17,COc1ccc(CNc2cc(C(O)CNC(C)(C)CCn3cnc4ccccc43)ccc2O)cc1 (stereo unspecified),154 to 155
18,NCCc1c[nH]c2ccc(OCCCCc3ccccc3)cc12,130 to 132
19,CCOCCCOc1ccc(-c2ccc3c(c2)C=C(C(=O)Nc2ccc(CN(C)C4CCOCC4)cc2)CCS3(=O)=O)cc1,214 to 215
20,CCOC(=O)/C=C(C)/C=C/C=C(C)/C=C/c1c(C)coc1C,98 to 101
21,C=CCn1c(SCc2cnn(-c3c(Cl)cc(C(F)(F)F)cc3Cl)n2)nc(C#N)c1C#N,125 to 127
22,O=C(O)C=Cc1ccc(-c2cnc(CSCCOc3ccccc3)o2)cc1,150 to 153
23,O=C1NC(=O)C(c2cn3c4c(cccc24)CC3)C1c1c[nH]c2ccccc12 (stereo unspecified),144 to 148
24,CSc1cccc(CNC(=O)c2nc3scc(COCc4ccc(C(=O)O)cc4)c3c(=O)[nH]2)c1,252 to 254

row,Structure (SMILES),melting point [°C]
1,O=C1C2CCCC2=Nc2ccc(Cl)cc2N1Cc1ccccc1 (stereo unspecified),134 to 136
2,O=C(N[C@H]1CCCNC1=O)c1ccc(F)cc1F,140 to 141
3,CC(C)(C)OC(=O)c1ccc([N+](=O)[O-])c(CBr)c1,61 to 65
4,CCN1CC(=O)Nc2cc(Nc3ncc(Cl)c(Nc4ccccc4S(=O)(=O)N(C)C)n3)c(OC)cc2C1,175
5,Nc1cc(I)ccc1Nc1cccc(-c2cncnc2)c1,166 to 169
6,CC(C)(CCn1cncn1)NCC(O)c1ccc(O)c(CO)c1 (stereo unspecified),177 to 180
7,O=C(O)c1ccccc1C(=O)NCc1ccccn1,140 to 142
8,CC(C)c1cc(OC2CN(C(c3ccccc3)c3ccccc3)C2)cc2c1C(=O)N(COC(=O)c1c(Cl)cccc1Cl)S2(=O)=O,205 to 207
9,Cc1nc(N)nc(N)c1-c1cc(Cl)c([N+](=O)[O-])c(Cl)c1Cl,313 to 315
10,COCCOc1ncc(Cl)c(N)c1Cl,92 to 93.5
11,Cc1cc(-n2nc(C(F)(F)F)cc2-c2ccc(-c3ccco3)cc2)ccc1S(C)(=O)=O,135 to 139
12,Cn1nc(-c2ccc(Cl)cc2)c2c1-c1ccccc1C2,176
13,Cc1cc2c(nc1OCCCCN1CCN(c3cccc4ccccc34)CC1)NC(=O)CC2,76 to 78
14,COc1cccc(CCc2ccccc2OC[C@H]2CCCN(C(=O)OC(C)(C)C)C2)c1,150 to 152
15,COc1cc(C(OC(C)=O)C(=O)O)cc(OC)c1OC (stereo unspecified),135 to 139
16,CC(=O)NN1C(=O)c2cc3ccc4c(c3c(-c3ccc5c(c3)OCO5)c2C1=O)OCO4,281 to 283
17,Cc1nc(-c2cn(Cc3ccc(F)cc3)nn2)sc1C(=O)NCc1cccnc1,212 to 213
18,COc1ccc(C(C#N)SC2CCCCC2)cc1OC (stereo unspecified),80 to 82
19,CCOC(=O)c1sc(C)nc1SC(=O)N(C)C,84.5 to 85.5
20,CC(O)CC(=O)Nc1c(C(=O)c2ccccc2)[nH]c2cc(Cl)ccc12 (stereo unspecified),159 to 162
21,Cc1noc(NC(=O)N2CCN(c3cncc(-c4ccc(F)cc4F)n3)CC2)c1C,225 to 226
22,COc1ccc2[nH]c(S(=O)Cc3nccc(N(C)C)c3F)nc2c1 (stereo unspecified),145 to 147
23,COc1ccc(C)cc1NC(=O)Nc1ccc(C2=CCN(C(=O)Nc3ccc(OCCO)cc3C(F)(F)F)CC2)cc1,150 to 153
24,CN1OCC(=O)N(C(c2ccccc2)c2ccccc2)C1=S,152 to 154

row,Structure (SMILES),melting point [°C]
1,CCOc1nn(CCc2ccc(OCc3nc(-c4ccccc4)oc3C)cc2)cc1CCC(=O)O,110 to 111
2,CCOC(=O)c1c(Oc2ccc(Cl)cc2N)c2ccccc2n1C,118 to 120
3,CC(C)(C)OC(=O)NC(Cc1ccc([N+](=O)[O-])cc1)C(=O)O (stereo unspecified),105 to 107
4,CN(Cc1cccc2c1C(=O)N(C1CCC(=O)NC1=O)C2=O)C(=O)Nc1ccc(Cl)c(Cl)c1 (stereo unspecified),255 to 257
5,COC(=O)c1cc(-c2ncco2)ccc1-c1ccccc1S(=O)(=O)Nc1onc(C)c1C,106 to 112
6,Nc1nn(CCN2CCCCC2)cc1-c1ccccc1,96
7,Cc1cc(-c2cc(=O)c3ccccc3o2)cc(C)c1O,255 to 256
8,O=c1[nH]nc2ccc(NCCCN3CCC(OC(c4ccccc4)c4ccccc4)CC3)nn12,156 to 170
9,CC(C)OC(=O)Nc1cccc(-c2ccnc3c(C(=O)c4ccoc4)cnn23)c1,127 to 129
10,Cc1cc(-c2cccc(C(F)(F)F)c2)c2nc(OCC(F)(F)F)nnc2c1,140 to 141
11,Cc1c(S(C)(=O)=O)ccc(C(=O)O)c1Cl,230 to 231
12,COC(=O)CN1CCC(C(=O)Oc2ccc([N+](=O)[O-])cc2)CC1,109 to 111
13,COc1cc(N)ccc1-c1cnn(C)c1,129 to 131
14,Cc1c(C(=O)NCc2ccc3c(Br)c(OCC#N)ccc3c2)oc2ccccc12,194 to 197
15,COc1ccc(S(=O)(=O)N2CCc3cccc(-c4ccc(O)cc4)c32)cc1,179 to 180
16,Cc1ccc(-c2c(Cl)ncn2-c2ccc(S(C)(=O)=O)cc2)cc1F,176
17,CC(C)(C)c1cc(CC=Cc2ccccc2)cc(C(C)(C)C)c1O,93
18,CSc1cccc2c1CC(=O)N2,198
19,N#CC(=Cc1cc(O)c(O)c([N+](=O)[O-])c1)C(=O)NCCCO,223 to 228
20,O=C(NC(Cc1ccc(OCc2ccc(F)cc2)cc1)C(=O)O)c1cc2cc(-c3ccc(Cl)cc3)ccc2s1 (stereo unspecified),189 to 190
21,C=CCNc1nc(NC(=O)N2CCCC2)c2scc(C)c2n1,98 to 101
22,CS(=O)(=O)c1ccc(-c2cnn(Cc3ccccc3)c(=O)c2Oc2ccc(F)cc2)cc1,188 to 190
23,CC1(C(=O)N2C[C@@H](O)C[C@H]2C(=O)NC2(C#N)CC2)CC1,160
24,O=C(N[C@H]1CC[C@H](CCN2CCN(c3nccc4c3CCO4)CC2)CC1)c1cnc(N2CCOCC2)cn1,192
